Data as given in EPA's ToxRefDB 2.

Experiments:
[1] = test system: rat; details: Sub-acute repeat dose toxicity; Oral; Gavage/Intubation; dose end: 10 day; group: systemic; systemic / in life observation / clinical signs / compulsive biting or licking + systemic / in life observation / clinical signs / …
[2] = test system: dog; details: Sub-acute repeat dose toxicity, beagle, Oral, Gavage/Intubation, dose end: 10 day, group: systemic
[3] = test system: dog; details: Sub-acute repeat dose toxicity, beagle, Oral, Gavage/Intubation, dose end: 1 month, group: systemic
[4] = test system: mouse; details: Subchronic oral toxicity in rodents, b6c3f1, Gavage/Intubation, dose end: 13 week, group: systemic
[5] = test system: rat; details: Subchronic oral toxicity in rodents, fischer, Gavage/Intubation, dose end: 13 week, group: systemic
[6] = test system: rat; details: Carcinogenicity, fischer, Oral, Gavage/Intubation, dose end: 103 week, group: systemic
[7] = test system: rat; details: Prenatal developmental toxicity study, long evans, Oral, Gavage/Intubation, dose end: 15 GD
[8] = test system: rat; details: Prenatal developmental toxicity study; sprague dawley; Dermal; Topical; dose end: 15 GD; group: maternal; systemic / in life observation / body weight / body weight gain + systemic / in life observation / clinical signs / [other]
[9] = test system: rabbit; details: Prenatal developmental toxicity study; new zealand white; Dermal; Topical; dose end: 18 GD; group: maternal; systemic / in life observation / clinical signs / [other]
[10] = test system: rat; details: Combined chronic toxicity/carcinogenicity, other, Oral, Feed, dose end: 24 month, group: systemic
[11] = test system: dog; details: Chronic toxicity, beagle, Oral, Feed, dose end: 12 month, group: systemic
[12] = test system: rat; details: Multigenerational reproductive toxicity study, sprague dawley, Oral, Feed, dose end: 2 generation
[13] = test system: rat; details: Subchronic oral toxicity in rodents, sprague dawley, Feed, dose end: 13 week, group: systemic
[14] = test system: mouse; details: Carcinogenicity, cd1, Oral, Feed, dose end: 78 week, group: systemic
[15] = systemic / in life observation / body weight / body weight + systemic / in life observation / clinical signs / altered breathing rate + …
[16] = systemic / in life observation / clinical signs / salivation + systemic / in life observation / clinical signs / emesis
[17] = systemic / in life observation / clinical signs / defecation (diarrhea) + systemic / in life observation / clinical signs / feces, …
[18] = systemic / in life observation / clinical signs / feces, discoloration
[19] = systemic / in life observation / mortality / mortality + systemic / pathology microscopic / kidney / degeneration + systemic / pathology …
[20] = systemic / in life observation / clinical signs / defecation (diarrhea) + systemic / in life observation / clinical signs / lethargy + …
[21] = systemic / organ weight / liver / absolute
[22] = systemic / pathology microscopic / kidney / hyperplasia + systemic / pathology microscopic / kidney / nephropathy
[23] = systemic / pathology microscopic / kidney / hyperplasia + systemic / pathology microscopic / kidney / nephropathy + systemic / in life …
[24] = group: developmental, developmental / developmental malformation / bone / irregular ossification + developmental / developmental malformation / general / runts + …
[25] = group: developmental, developmental / developmental malformation / bone / irregular ossification + developmental / developmental malformation / kidney / …
[26] = group: maternal, systemic / in life observation / clinical signs / [other] + systemic / in life observation / clinical signs / hyperactivity + reproductive…
[27] = systemic / pathology microscopic / liver / pigmentation
[28] = systemic / pathology microscopic / liver / pigmentation + systemic / pathology microscopic / liver / hypertrophy
[29] = group: offspring, systemic / in life observation / body weight / offspring (pup) weight
[30] = group: parental, systemic / in life observation / body weight / body weight
[31] = systemic / organ weight / liver / relative to body weight
[32] = systemic / organ weight / liver / absolute + systemic / organ weight / liver / relative to body weight + systemic / pathology microscopic / …
[33] = systemic / pathology microscopic / kidney / mineralization

Compound: CC(N)c1cc(F)ccc1Oc1ccc(Cl)c(Cl)c1 (configuration not stated)
- LEL [1]: 3 mg/kg/day
- LOAEL [1]: > 150 mg/kg/day
- NEL [1]: < 3 mg/kg/day
- NOAEL [1]: ≥ 150 mg/kg/day
- LOAEL [2, 15]: > 100 mg/kg/day
- NOAEL [2, 15]: ≥ 100 mg/kg/day
- LEL [2, 16]: 3 mg/kg/day
- NEL [2, 16]: < 3 mg/kg/day

Compound: COc1ccc(C(=O)Nc2nc3ccccc3c(NCc3ccccc3)c2C#N)cc1
- LOAEL [3, 17]: 1500 mg/kg/day
- NOAEL [3, 17]: 750 mg/kg/day
- LEL [3, 18]: 300 mg/kg/day
- NEL [3, 18]: < 300 mg/kg/day

Compound: Nc1cc([N+](=O)[O-])ccc1O [2-Amino-4-nitrophenol]
- LEL ([4]; systemic / in life observation / mortality / mortality): 500 mg/kg/day
- LOAEL [4, 19]: > 1000 mg/kg/day
- NEL [4, 19]: 250 mg/kg/day
- NOAEL [4, 19]: ≥ 1000 mg/kg/day
- LOAEL [5, 20]: > 1000 mg/kg/day
- NEL [5, 20]: 125 mg/kg/day
- NOAEL [5, 20]: ≥ 1000 mg/kg/day
- LEL [5, 21]: 250 mg/kg/day
- LOAEL [6, 22]: 125 mg/kg/day
- NOAEL [6, 22]: < 125 mg/kg/day
- LEL [6, 23]: 125 mg/kg/day
- NEL [6, 23]: < 125 mg/kg/day

Compound: NCCO [Ethanolamine]
- LOAEL [7, 24]: > 500 mg/kg/day
- NOAEL [7, 24]: ≥ 500 mg/kg/day
- LEL [7, 25]: 50 mg/kg/day
- NEL [7, 25]: < 50 mg/kg/day
- NEL ([7]; group: maternal, systemic / in life observation / clinical signs / [other] + systemic / in life observation / clinical signs / hyperactivity): 300 mg/kg/day
- LEL [7, 26]: 500 mg/kg/day
- LOAEL [7, 26]: > 500 mg/kg/day
- NOAEL [7, 26]: ≥ 500 mg/kg/day
- LEL [8]: 225 mg/kg/day
- LOAEL [8]: > 225 mg/kg/day
- NEL [8]: 75 mg/kg/day
- NOAEL [8]: ≥ 225 mg/kg/day
- LEL [9]: 75 mg/kg/day
- LOAEL [9]: > 75 mg/kg/day
- NEL [9]: 25 mg/kg/day
- NOAEL [9]: ≥ 75 mg/kg/day

Compound: CCCCC(CC)CN1C(=O)C2C3C=CC(C3)C2C1=O (configuration not stated) [MGK-264]
- LEL [10, 21]: 50 mg/kg/day
- NEL [10, 21]: < 50 mg/kg/day
- NOAEL ([10]; systemic / pathology microscopic / liver / hypertrophy + systemic / pathology microscopic / liver / proliferation + systemic / in life …): 50 mg/kg/day
- LOAEL ([10]; systemic / pathology microscopic / liver / hypertrophy + systemic / pathology microscopic / liver / proliferation + systemic / organ weight…): 150 mg/kg/day
- NEL [11, 27]: 7.5 mg/kg/day
- NOAEL [11, 27]: 7.5 mg/kg/day
- LEL [11, 28]: 33.7 mg/kg/day
- LOAEL [11, 28]: 33.7 mg/kg/day
- LEL [12, 29]: 61 mg/kg/day
- LOAEL [12, 29]: 61 mg/kg/day
- NEL [12, 29]: < 61 mg/kg/day
- NOAEL [12, 29]: < 61 mg/kg/day
- LEL [12, 30]: 61 mg/kg/day
- NEL [12, 30]: < 61 mg/kg/day
- LOAEL ([13]; systemic / organ weight / liver / absolute + systemic / organ weight / liver / relative to body weight): 260 mg/kg/day
- NOAEL ([13]; systemic / organ weight / liver / absolute + systemic / organ weight / liver / relative to body weight + systemic / clinical chemistry / …): 130 mg/kg/day
- LEL [13, 31]: 140 mg/kg/day
- NEL [13, 31]: < 140 mg/kg/day
- LOAEL [14, 32]: 396 mg/kg/day
- NOAEL [14, 32]: 49.5 mg/kg/day
- LEL [14, 33]: 49.5 mg/kg/day
- NEL [14, 33]: < 49.5 mg/kg/day
